According to patent publication US11130741B2 (Bioimics AB, priority 2016, dated 2021):
Read-outs that look alike come from different tables or passages of the source.

Legend:
E. coli JW5503 = assay: MIC, E. coli JW5503; type: cell-based; conditions: Escherichia coli, JW5503, read-out: MIC E. coli JW5503
S. pneumoniae ATCC 49619 = assay: MIC, S. pneumoniae ATCC 49619; type: cell-based; conditions: Streptococcus pneumoniae, ATCC49619
[1] = system: Enterococcus faecalis (ATCC29212); assay: MIC, broth microdilution (CLSI), Enterococcus faecalis ATCC29212; type: cell-based; conditions: read-out: MIC E. faecalis ATCC 29212
E. faecium ATCC 700221 = assay: MIC, E. faecium ATCC 700221; type: cell-based; conditions: Enterococcus faecium, ATCC700221; read-out: MIC E. faecium ATCC 700221
[2] = system: Staphylococcus aureus subsp. aureus (ATCC29213); assay: MIC, broth microdilution (CLSI), Staphylococcus aureus subsp. aureus ATCC29213; type: cell-based
S. aureus ATCC 29213 = assay: MIC, S. aureus ATCC 29213 + 50% HS; type: cell-based; conditions: Staphylococcus aureus, ATCC29213
[3] = system: E. coli RNase P RNA, M1 RNA; assay: Inhibition of bacterial RNase P activity, IC50 determination (cleavage of pATSerUG by M1 RNA); type: biochemical; conditions: NI = No inhibition
[4] = system: Pseudomonas aeruginosa (ATCC27853); assay: microbe, parasite or virus in culture; type: cell-based; conditions: read-out: MIC P. aeruginosa ATCC 27853
[5] = system: S. aureus USA300 MRSA BAA 1717; assay: MIC, S. aureus USA300 MRSA BAA 1717; type: cell-based; conditions: Staphylococcus aureus
K. pneumoniae ATCC 43816 = assay: MIC, K. pneumoniae ATCC 43816; type: cell-based; conditions: Klebsiella pneumoniae, ATCC43816
A. baumannii ATCC 17978 = assay: MIC, A. baumannii ATCC 17978; type: cell-based; conditions: Acinetobacter baumannii, ATCC17978
H. pylori ATCC 43504 = assay: MIC, H. pylori ATCC 43504; type: cell-based; conditions: Helicobacter pylori, ATCC43504
[6] = system: Escherichia coli (ATCC25922); assay: MIC, broth microdilution (CLSI), Escherichia coli ATCC25922
Experimental: Initial minimal inhibitory concentration (MIC) tests were made on two bacterial strains: • Escherichia coli (ATCC25922) • Staphylococcus aureus (ATCC25923).
Minimal Inhibitory Concentration (MIC)
MIC values were determined using the standard broth microdilution procedure based on the guidelines by the Clinical and Laboratory Standards Institute (CLSI). Briefly, the compounds were dissolved in DMSO to 10 mM. They were diluted in cation-adjusted Mueller-Hinton broth (CAMHB) to four times the highest concentration tested. A serial 2-fold dilution in CAMHB was done in microdilution plates. The inoculum of bacterial strain to be tested was prepared by making a suspension of colonies from an 18 to 24 hours old plate in CAMHB. The inoculum was diluted so that, after inoculation, each well contained approximately 5×10^5 CFU/mL. To a volume of 50 μl compound in CAMHB an equal volume of inoculum was added. The tray was sealed in a plastic bag and incubated at 35° C. for 16 to 20 hours. To aid in the detection of growth the dye resazurin was added to a final concentration 0.001% and incubated at room temperature for 1 h. Reduction of resazurin, and therefore bacterial growth, was seen as a change from blue to pink.

[7] = system: P. aeruginosa NTUH-974 (MDR); assay: MIC, P. aeruginosa NTUH-974 (MDR); type: cell-based; conditions: Pseudomonas aeruginosa; read-out: MIC P. aeruginosa NTUH-974 (MDR)
M. phlei ATCC 11758 = assay: MIC, M. phlei ATCC 11758; type: cell-based; conditions: Mycolicibacterium phlei, ATCC11758
H. influenzae ATCC 49247 = assay: MIC, H. influenzae ATCC 49247; type: cell-based; conditions: Haemophilus influenzae, ATCC49247
[8] = system: S. aureus MRSA ATCC 33591; assay: MIC, S. aureus MRSA ATCC 33591; type: cell-based; conditions: Staphylococcus aureus; read-out: MIC S. aureus MRSA ATCC 33591
N. gonorrhoeae 612501 = assay: MIC, N. gonorrhoeae 612501; type: cell-based; conditions: Neisseria gonorrhoeae
M. fortuitum ATCC 110 = assay: MIC, M. fortuitum ATCC 110; type: cell-based; conditions: Mycolicibacterium fortuitum, ATCC110
[9] = ATCC29213, Table 15, read-out: S. aureus ("wound") (MIC)
[10] = ATCC29213, Table 16, read-out: MIC S. aureus ATCC 29213
[11] = ATCC25922, read-out: E. coli MIC, Table 15, NI = No inhibition
[12] = ATCC25922, read-out: MIC E. coli ATCC 25922, Table 16

| Structure (SMILES) | MIC (E. coli JW5503) | MIC (S. pneumoniae ATCC 49619) | MIC [1] | MIC (E. faecium ATCC 700221) | MIC [2, 9] | MIC [2, 10] | MIC (S. aureus ATCC 29213) | IC50 [3] | MIC [4] | MIC [5] | MIC (K. pneumoniae ATCC 43816) | MIC (A. baumannii ATCC 17978) | MIC (H. pylori ATCC 43504) | MIC [6, 11] | MIC [6, 12] | MIC [7] | MIC (M. phlei ATCC 11758) | MIC (H. influenzae ATCC 49247) | MIC [8] | MIC (N. gonorrhoeae 612501) | further results |
| --- | --- | --- | --- | --- | --- | --- | --- | --- | --- | --- | --- | --- | --- | --- | --- | --- | --- | --- | --- | --- | --- |
| Cl.NC1CCCC(CNc2cc(C(F)(F)F)cc3c2Nc2ccc(N4CCCC4)cc2S3)C1 (stereo not drawn) [compound 300, N-((3-aminocyclohexyl)methyl)-7-(pyrrolidin-1-yl)-3-(trifluoromethyl)-10H-phenothiazin-1-amine] | 2 µg/mL | 4 µg/mL | 1 µg/mL | 1 µg/mL | 1 µg/mL | 1 µg/mL | 16 µg/mL | 1.9 µM | > 32 µg/mL | 1 µg/mL | 8 µg/mL | 8 µg/mL | 16 µg/mL | 16 µg/mL | 4 µg/mL | > 32 µg/mL | 4 µg/mL | 2 µg/mL | 1 µg/mL | 1 µg/mL | MIC (M. fortuitum ATCC 110): 2 µg/mL |
| CCN(CC)c1ccc2c(c1)Sc1cc(C(F)(F)F)cc(NC3CCN(CCN)CC3)c1N2.Cl.Cl.Cl [compound 306, N1-(1-(2-aminoethyl)piperidin-4-yl)-N7,N7-diethyl-3-(trifluoromethyl)-10H-phenothiazine-1,7-diamine hydrochloride] | 2 µg/mL | 4 µg/mL | 4 µg/mL | 2 µg/mL | 2 µg/mL | 2 µg/mL | 8 µg/mL | 50 µM | 32 µg/mL | 2 µg/mL | 4 µg/mL | 8 µg/mL | 32 µg/mL | 4 µg/mL | 4 µg/mL | 32 µg/mL | 8 µg/mL | 8 µg/mL | 2 µg/mL | 2 µg/mL | MIC (M. fortuitum ATCC 110): 4 µg/mL |
| CC1(C)CCCN(c2ccc3c(c2)Sc2cc(C(F)(F)F)cc(NC4CCN(CCN)CC4)c2N3)C1.Cl.Cl [compound 305, N-(1-(2-aminoethyl)piperidin-4-yl)-7-(3,3-dimethyl-piperidin-1-yl)-3-(trifluoromethyl)-10H-phenothiazin-1-amine hydrochloride] | 4 µg/mL | 2 µg/mL | 1 µg/mL | 1 µg/mL | 2 µg/mL | 1 µg/mL | 32 µg/mL | 2.9 µM | 16 µg/mL | 1 µg/mL | 4 µg/mL | 4 µg/mL | 16 µg/mL | 4 µg/mL | 4 µg/mL | 16 µg/mL | 2 µg/mL | 1 µg/mL | 1 µg/mL | 1 µg/mL | MIC (M. fortuitum ATCC 110): 4 µg/mL |
| CC1CCCN(c2ccc3c(c2)Sc2cc(C(F)(F)F)cc(NC4CCN(CCN)CC4)c2N3)C1.Cl.Cl (stereo not drawn) [compound 301, N-(1-(2-aminoethyl)piperidin-4-yl)-7-(3-methyl-piperidin-1-yl)-3-(trifluoromethyl)-10H-phenothiazin-1-amine hydrochloride] | 2 µg/mL | 4 µg/mL | 2 µg/mL | 2 µg/mL | 2 µg/mL | 4 µg/mL | 16 µg/mL | 27 µM | 16 µg/mL | 2 µg/mL | 4 µg/mL | 4 µg/mL | 8 µg/mL | 4 µg/mL | 4 µg/mL | 16 µg/mL | 8 µg/mL | 2 µg/mL | 2 µg/mL | 1 µg/mL | MIC (M. fortuitum ATCC 110): 4 µg/mL |
| Cl.Cl.NCCNCCC(=O)Nc1cc(C(F)(F)F)cc2c1Nc1ccc(N3CCCC3)cc1S2 [compound 302, 3-((2-aminoethyl)amino)-N-(7-(pyrrolidin-1-yl)-3-(trifluoromethyl)-10H-phenothiazin-1-yl)propanamide hydrochloride] | 16 µg/mL | 64 µg/mL | 8 µg/mL | 4 µg/mL | 32 µg/mL | 8 µg/mL | 64 µg/mL | 3.6 µM | 32 µg/mL | 8 µg/mL | 16 µg/mL | 32 µg/mL | 32 µg/mL | 128 µg/mL | 16 µg/mL | 32 µg/mL | 16 µg/mL | 16 µg/mL | 8 µg/mL | 8 µg/mL | MIC (M. fortuitum ATCC 110): 8 µg/mL |
